# Tested on: LNCaP cells
# Assay: Western blotting of Cyclin B1, Cyclin D1, γ-H2A.X, phosph-p53, p21
# Type: cell-based
# Conditions: scrambled siRNA controls
# Description: Western blotting: Twenty-five micrograms of protein were separated on 10% to 20% SDS-PAGE and transferred onto PVD filters (Millipore, Bedford, Mass.). Membranes were incubated with primary antibodies overnight at 4° C. followed by horseradish peroxidase-conjugated secondary antibodies, and developed with the Super Signal West Dura Extended Duration Substrate kit (Pierce). RBM3 antibody was generated in a rabbit against as peptide (Sigma-Gneosys, The Woodlands, Tex.). HSPA1A and CIRBP antibodies were obtained from Lifespan Biosciences (ProteinTech Group, Chicago, Ill.), phospho-Histone H2A.X antibody was obtained from Millipore. Other antibodies were purchased from Cell Signaling (Danvers, Mass.) and Santa Cruz (Santa Cruz, Calif.)
# Prostate cancer cells PC-3 (FIG. 12A) and LNCaP (FIG. 12B) were transfected with 100 nM RBM3 or CIRBP SMARTpool siRNA. Forty-eight hours after transfection, cells were treated with 4 μg/ml cDDP or 1 μg/ml ADM for 4 h, and then moved back to normal medium for another 16 h. Cell lysates were subjected to Western blotting to detect Cyclin B1, Cyclin D1, phosph-histone H2A.X (Ser139) (γ-H2A.X), phosph-p53 (Ser15), and p21. Actin was used as a control for protein loading.
row,Structure (SMILES),activation of p53 by drug treatment
1,"[NH2][Pt]([NH2])([Cl])[Cl] [cDDP, cisplatin]",activated
2,"COc1cccc2c1C(=O)c1c(O)c3c(c(O)c1C2=O)C[C@@](O)(C(=O)CO)C[C@@H]3O[C@H]1C[C@H](N)[C@H](O)[C@H](C)O1 [ADM, adriamycin]",activated
